Literature values in patent US20120065267A1, “COMPOSITIONS INCLUDING 3,5-L-T2 AND METHODS OF USE THEREOF” (priority 2010, published 2012).
Where two headings read alike, the source gives them in different places.

Experiments:
[1] = test system: hypercholesterolemic patients; details: cited from earlier work
TR α1, β1 and β2 = details: in vitro; cited from earlier work

Compound	patients with coronary artery disease experiencing increased anginal symptoms ([1]; 300 mg daily for 8 months)	patients with coronary artery disease who died suddenly from presumed myocardial infarction ([1]; 300 mg daily for 8 months)	decrease in total serum cholesterol ([1]; 300 mg daily, at 20 weeks) [%]	mean heart rate on treatment ([1]; 300 mg daily, increase from 76) [beats per minute]	efficacy at lower doses ([1]; doses of less than 250 mg/day)	decrease in body weight ([1]; euthyroid subjects, 300 mg daily for 8 months) [%]	decrease in body weight ([1]; hypothyroid patients, 300 mg daily for 8 months) [%]	binding affinity relative to that of T2 (TR α1, β1 and β2)
N[C@H](Cc1cc(I)c(Oc2ccc(O)cc2)c(I)c1)C(=O)O [3,5-D-T2]	7 of 13	2 of the 13	20	88	ineffective	5	8	
N[C@@H](Cc1cc(I)c(Oc2ccc(O)c(I)c2)c(I)c1)C(=O)O [T3, (2S)-2-amino-3-[4-(4-hydroxy-3-iodophenoxy)-3,5-diiodophenyl]propanoic acid]								40-500 fold
